# Experimental data reported in patent US7652053B2, “Diaminocycloalkane MCH receptor antagonists” (Hoffmann-La Roche Inc., priority 2006, dated 2010).
# Structures can show the parent of a compound that is named as a salt. Where two headings read alike, the source gives them in different places.
# Biological target: T1, recombinant human MCHR1 receptors (Homo sapiens, UniProt Q99705)
# T1 construct: expressed in transfected cells
# Experiment: MCHR Filter Binding Assay (competition binding with [Phe13[125I]Tyr19]-MCH)
# Description: Competition binding assay was conducted in MultiScreen […] glass fiber type B filter plates (96-well, Millipore). The MultiScreen plates were pretreated by incubation with 0.5% polyvinylpyrrolidone solution containing 1% BSA and 0.1% tween-20 for 12 hours at 4° C. and washed five times with ice-cold 10 mM Tris buffer, pH 7.5, followed by incubation with 200 µL of binding buffer (50 mM HEPES, 2.5 mM CaCl2, 0.05 mM BSA, 1 mM phenanthroline, 0.03 mM Triton X-100) for 5 min at room temperature and plates were drained before the binding reactions. The binding assay was performed by pre-incubating 2.8 µg of membranes from CHO-K1 cells stably expressing the recombinant human MCHR1 receptors, and various concentrations (final concentration 0.059 nM to 45 µM) of unlabeled MCH or antagonists in binding buffer for 15 min at room temperature. The competition reaction was started by adding final concentration (0.2 nM) [Phe^13[^125I]Tyr^19]-MCH (PerkinElmer). The final volume of the reaction was 90 µL per well. After 60 min incubation time at room temperature the reaction was stopped by rapid filtration over 96-well filter plates. Following termination of the binding reactions, the filters were washed with ice-cold binding buffer (4×200 µL), and were air dried for 30 min. Scintillation cocktail (60 µL) was added to each well and radioactivity bound to the plates was determined using a Micro-beta plate reader (Wallace/PerkinElmer). The inhibition potency of antagonist was expressed as IC50, the concentration of compound at which the binding of radio labeled MCH to MCHR1 was inhibited by 50%.
# [1] = membranes from CHO-K1 cells stably expressing human MCHR1, 0.2 nM radiolabeled MCH, read-out: Activity in MCHR binding assays (IC50 class)
# [2] = inhibition of binding of MCH to MCHR
# [3] = inhibition of binding of MCH to MCHR, read-out: MCHR IC50
# T1 sequence (Q99705 whole entry): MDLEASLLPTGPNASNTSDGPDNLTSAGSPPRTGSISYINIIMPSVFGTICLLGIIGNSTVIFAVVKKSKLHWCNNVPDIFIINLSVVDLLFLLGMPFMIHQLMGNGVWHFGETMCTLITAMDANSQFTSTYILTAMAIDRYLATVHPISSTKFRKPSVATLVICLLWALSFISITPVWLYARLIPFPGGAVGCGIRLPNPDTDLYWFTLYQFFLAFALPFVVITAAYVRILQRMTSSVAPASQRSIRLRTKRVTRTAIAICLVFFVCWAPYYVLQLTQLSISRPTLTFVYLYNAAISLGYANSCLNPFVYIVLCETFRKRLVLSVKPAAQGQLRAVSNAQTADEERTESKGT
SMILES,IC50 [1],Ki [2],IC50 [3]
"Cc1ccc2c(c1)nc(C)n2[C@@H]1CC[C@@H](NCC2Cc3ccc(Cl)cc3C2)C1 (relative stereo) [Example 3, trans-(5-Chloro-indan-2-ylmethyl)-[3-(2,5-dimethyl-benzoimidazol-1-yl)-cyclopentyl]-amine]",0.1 to 1 µM,,
"CC(C)(O)c1nc2cc(Cl)ccc2n1[C@H]1CC[C@@H](NCC2Cc3ccc(C(F)(F)F)cc3C2)CC1 (relative stereo) [Example 8, cis-2-(5-Chloro-1-{4-[(5-trifluoromethyl-indan-2-ylmethyl)-amino]-cyclohexyl}-1H-benzoimidazol-2-yl)-propan-2-ol]",0.1 to 1 µM,,
"Cc1ccc2c(c1)nc(C)n2[C@H]1CC[C@@H](NC2Cc3ccccc3C2)CC1 [Example 1, cis-4-(2,5-Dimethyl-benzoimidazol-1-yl)-cyclohexyl]-indan-2-yl-amine; hydrochloride]",0.1 to 1 µM,,
"Cc1ccc2c(c1)nc(C)n2[C@@H]1CC[C@@H](NC[C@H]2Cc3ccc(Br)cc3C2)C1 [Example 2, trans-(S)-(5-Bomo-indan-2-ylmethyl)-[3-(2,5-dimethyl-benzoimidazol-1-yl)-cyclopentyl]-amine]",0.1 to 1 µM,,
"Cc1ccc2c(c1)nc(C)n2[C@H]1CC[C@@H](NC[C@H]2Cc3ccc(Br)cc3C2)CC1 [Example 4, cis-(S)-(5-Bromo-indan-2-ylmethyl)-[4-(2,5-dimethyl-benzoimidazole-1-yl)-cyclohexyl]-amine hydrochloride]",0.01 to 0.1 µM,,
"Cc1ccc2c(c1)nc(C)n2[C@@H]1CC[C@H](NC[C@H]2Cc3ccc(Br)cc3C2)C1 [Example 5, cis-(S)-(5-Bromo-indan-2-ylmethyl)-[3-(2,5-dimethyl-benzoimidazol-1-yl)-cyclopentyl]-amine]",0.1 to 1 µM,,
"Cc1ccc2c(c1)nc(C)n2[C@H]1CC[C@@H](NC2Cc3ccc(Cl)cc3C2)CC1 (stereo partly drawn) [Example 6, cis-(5-Chloro-indan-2-yl)-[4-(2,5-dimethyl-benzoimidazol-1-yl)-cyclohexyl]-amine; hydrochloride]",0.01 to 0.1 µM,,
"CC(C)(O)c1nc2cc(Cl)ccc2n1[C@H]1CC[C@@H](NC[C@H]2Cc3ccc(Br)cc3C2)CC1 [Example 7, cis-(S)-2-(1-{4-[(5-Bromo-indan-2-ylmethyl)-amino]-cyclohexyl}-5-chloro-1H-benzoimidazol-2-yl)-propan-2-ol]",0.01 to 0.1 µM,0.019 µM,0.024 µM
"CC(C)(O)c1nc2cc(Cl)ccc2n1[C@H]1CC[C@@H](NCC2Cc3ccccc3C2)CC1 [Example 9, cis-2-(5-Chloro-1-{4-[(indan-2-ylmethyl)-amino]-cyclohexyl}-1H-benzoimidazol-2-yl)-propan-2-ol]",0.01 to 0.1 µM,,
"CC(C)(O)c1nc2cc(Cl)ccc2n1[C@H]1CC[C@@H](NCC2Cc3ccc(Cl)cc3C2)CC1 (stereo partly drawn) [Example 10, cis-2-(5-Chloro-1-{4-[(5-chloro-indan-2-ylmethyl)-amino]-cyclohexyl}-1H-benzoimidazol-2-yl)-propan-2-ol]",0.01 to 0.1 µM,,
"Cc1ccc2c(c1)nc(C)n2[C@H]1CC[C@@H](NCC2Cc3ccc(Cl)cc3C2)CC1 (stereo partly drawn) [Example 11, cis-(5-Chloro-indan-2-ylmethyl)-[4-(2,5-dimethyl-benzoimidazol-1-yl)-cyclohexyl]-amine]",0.01 to 0.1 µM,,

# Results, then the compound that gave them:
IC50 [1],Ki [2],IC50 [3],SMILES
0.1 to 1 µM,,,"Cc1ccc2c(c1)nc(C)n2[C@H]1CC[C@@H](NCC2Cc3ccc(C(F)(F)F)cc3C2)CC1 (stereo partly drawn) [Example 12, cis-[4-(2,5-Dimethyl-benzoimidazol-1-yl)-cyclohexyl]-(5-trifluoromethyl-indan-2-ylmethyl)-amine]"
0.1 to 1 µM,,,"Cc1ccc2c(c1)nc(C)n2[C@H]1CC[C@@H](NCC2Cc3ccccc3C2)CC1 [Example 13, cis-[4-(2,5-Dimethyl-benzoimidazol-1-yl)-cyclohexyl]-indan-2-ylmethyl-amine]"
< 0.01 µM,0.0018 µM,0.0022 µM,"CC(C)(O)c1nc2cc(Cl)ccc2n1[C@H]1CC[C@@H](NC[C@H]2Cc3ccc(C#N)cc3C2)CC1 [Example 14, cis-(S)-2-({4-[5-Chloro-2-(1-hydroxy-1-methyl-ethyl)-benzoimidazol-1-yl]-cyclohexylamino}-methyl)-indan-5-carbonitrile]"
0.01 to 0.1 µM,,,"Cc1ccc2c(c1)nc(C)n2[C@H]1CC[C@@H](NC[C@H]2Cc3ccc(C#N)cc3C2)CC1 [Example 15, cis-(S)-2-{[4-(2,5-Dimethyl-benzoimidazol-1-yl)-cyclohexylamino]-methyl}-indan-5-carbonitrile]"
< 0.01 µM,,,"Cc1ccc2c(c1)nc(C(C)(C)O)n2[C@H]1CC[C@@H](NC[C@H]2Cc3ccc(C#N)cc3C2)CC1 [Example 16, cis-(S)-2-({4-[2-(1-Hydroxy-1-methyl-ethyl)-5-methyl-benzoimidazol-1-yl]-cyclohexylamino}-methyl)-indan-5-carbonitrile]"
0.1 to 1 µM,,,"Cc1ccc2c(c1)nc(C(C)(C)O)n2[C@H]1CC[C@H](NC[C@H]2Cc3ccc(C#N)cc3C2)CC1 [Example 17, trans-(S)-2-({4-[2-(1-Hydroxy-1-methyl-ethyl)-5-methyl-benzoimidazol-1-yl]-cyclohexylamino}-methyl)-indan-5-carbonitrile]"
0.01 to 0.1 µM,,,"Cc1ccc2c(c1)nc(C(C)(C)O)n2[C@H]1CC[C@@H](NCC2Cc3ccc(F)cc3C2)CC1 (stereo partly drawn) [Example 18, cis-2-(1-{4-[(5-Fluoro-indan-2-ylmethyl)-amino]-cyclohexyl}-5-methyl-1H-benzoimidazol-2-yl)-propan-2-ol]"
0.1 to 1 µM,,,"Cc1ccc2c(c1)nc(C(C)(C)O)n2[C@H]1CC[C@H](NCC2Cc3ccc(F)cc3C2)CC1 (stereo partly drawn) [Example 19, trans-2-(1-{4-[(5-Fluoro-indan-2-ylmethyl)-amino]-cyclohexyl}-5-methyl-1H-benzoimidazol-2-yl)-propan-2-ol]"
0.01 to 0.1 µM,0.021 µM,0.026 µM,"Cc1ccc2c(c1)nc(C(C)(C)O)n2[C@H]1CC[C@@H](NCC2Cc3ccc(Cl)cc3C2)CC1 (stereo partly drawn) [Example 20, cis-2-(1-{4-[(5-Chloro-indan-2-ylmethyl)-amino]-cyclohexyl}-5-methyl-1H-benzoimidazol-2-yl)-propan-2-ol]"
0.1 to 1 µM,,,"Cc1ccc2c(c1)nc(C(C)(C)O)n2[C@H]1CC[C@H](NCC2Cc3ccc(Cl)cc3C2)CC1 (stereo partly drawn) [Example 21, trans-2-(1-{4-[(5-Chloro-indan-2-ylmethyl)-amino]-cyclohexyl}-5-methyl-1H-benzoimidazol-2-yl)-propan-2-ol]"
< 0.01 µM,,,"CC(C)(O)c1nc2cc(Cl)ccc2n1[C@H]1CC[C@@H](NC[C@@H]2Cc3ccc(C#N)cc3C2)CC1 [Example 22, cis-(R)-2-({4-[5-Chloro-2-(1-hydroxy-1-methyl-ethyl)-benzoimidazol-1H-yl]-cyclohexylamino}-methyl)-indan-5-carbonitrile]"
0.1 to 1 µM,0.154 µM,0.193 µM,"CC(=O)N(C[C@H]1Cc2ccc(C#N)cc2C1)[C@H]1CC[C@@H](n2c(C(C)(C)O)nc3cc(Cl)ccc32)CC1 [Example 23, cis-(S)—N-{4-[5-Chloro-2-(1-hydroxy-1-methyl-ethyl)-benzoimidazol-1-yl]-cyclohexyl}-N-(5-cyano-indan-2-ylmethyl)-acetamide]"
0.01 to 0.1 µM,,,"CC(C)(O)c1nc2cc(Cl)ccc2n1[C@H]1CC[C@@H](NC[C@@H]2Cc3ccc(Br)cc3C2)CC1 [Example 24, cis-(R)-2-(1-{4-[(5-Bromo-indan-2-ylmethyl)-amino]-cyclohexyl}-5-chloro-1H-benzoimidazol-2-yl)-propan-2-ol]"
0.01 to 0.1 µM,,,"Cc1nc2cc(C#N)ccc2n1[C@H]1CC[C@@H](NCC2Cc3ccc(Cl)cc3C2)CC1 (stereo partly drawn) [Example 25, cis-1-{4-[(5-Chloro-indan-2-ylmethyl)-amino]-cyclohexyl}-2-methyl-1H-benzoimidazole-5-carbonitrile]"
< 0.01 µM,0.002 µM,0.003 µM,"Cc1nc2cc(F)ccc2n1[C@H]1CC[C@@H](NC[C@H]2Cc3ccc(C#N)cc3C2)CC1 [Example 26, cis-(S)-2-{[4-(5-Fluoro-2-methyl-benzoimidazol-1-yl)-cyclohexylamino]-methyl}-indan-5-carbonitrile]"
